Experimental data published in article PMC10515382, “Aminochalcones Attenuate Neuronal Cell Death under Oxidative Damage via Sirtuin 1 Activity” (ACS Omega, 2023).

Legend:
[1] = tested on: H2O2-induced SH-SY5Y cells; assay: Cell morphology observation in H2O2-induced SH-SY5Y cells; format: cell-based, human; details: 5 μM pretreatment 3 h, then 400 μM H2O2 24 h
Protocol: After adhering, the cells were treated with aminochalcones for 3 h. The culture media was refreshed, followed by an additional 24 h of exposure to 400 μM H2O2.

[2] = tested on: H2O2-induced SH-SY5Y cells; assay: Cell viability in H2O2-induced SH-SY5Y cells (MTT assay); format: cell-based, human; details: 5 μM pretreatment 3 h, then 400 μM H2O2 24 h; for protective effect on cell viability: vs nonpretreated group
Protocol: Cell viability was evaluated using the MTT assay. […] Cells were pretreated for 3 h with aminochalcones or resveratrol at various concentrations ranging from 0 to 100 μM before being incubated with 400 μM H2O2 (Sigma-Aldrich, Cat. no. 31642) for 24 h. Cells treated only with culture media, DMEM with 10% FBS, were used as the control. Each well received 5 mg/mL of MTT solution at the end of the incubation time, and the samples were then incubated at 37 °C in the dark for 2–4 h. Following the removal of the solution, 0.04 N HCl in isopropyl alcohol was added to dissolve the formazan crystals. A microplate reader programed to read at 570 nm was used to detect the MTT formazan product. The absorbance of formazan is directly proportional to the number of viable cells. The viability of the cells was expressed in percentages compared with the viability of the control group.[23]

[3] = tested on: H2O2-induced SH-SY5Y cells; assay: LDH assay of cell membrane damage in H2O2-induced SH-SY5Y cells; format: cell-based, human; details: 5 μM pretreatment, vs H2O2 alone
Protocol: LDH leakage into the culture medium of aminochalcones with or without H2O2-treated cells was assessed by using an LDH assay kit to determine the neuroprotective effect of aminochalcones against H2O2-induced cell damage. To prepare samples for the LDH test, 2 mL of SH-SY5Y cells at 1.0 × 10^5 cells/mL concentration was added and incubated overnight in 6-well plates at 37 °C. Then, each well was pretreated for 3 h with 5 μM aminochalcones or resveratrol before exposure to 400 μM H2O2 for another 24 h. Subsequently, the LDH assay kit (Cat. no. MAK066) from Sigma-Aldrich (St. Louis, MO, USA) was used to measure the LDH activity, following the manufacturer’s instructions. The assay relies on the conversion of lactate to pyruvate by the enzyme lactate dehydrogenase and further produces NADH as a product, giving rise to an increase in absorbance at 450 nm.

SH-SY5Y cells = assay: SH-SY5Y cell viability, compounds alone (MTT assay); format: cell-based, human; details: compounds alone at 10 μM, no H2O2
Protocol: Cell viability was evaluated using the MTT assay. Briefly, 96-well plates were seeded with SH-SY5Y cells at a density of 1 × 10^5 cells/mL and allowed to attach. Cells were pretreated for 3 h with aminochalcones or resveratrol at various concentrations ranging from 0 to 100 μM before being incubated with 400 μM H2O2 (Sigma-Aldrich, Cat. no. 31642) for 24 h. Cells treated only with culture media, DMEM with 10% FBS, were used as the control. Each well received 5 mg/mL of MTT solution at the end of the incubation time, and the samples were then incubated at 37 °C in the dark for 2–4 h. Following the removal of the solution, 0.04 N HCl in isopropyl alcohol was added to dissolve the formazan crystals. A microplate reader programed to read at 570 nm was used to detect the MTT formazan product. The absorbance of formazan is directly proportional to the number of viable cells. The viability of the cells was expressed in percentages compared with the viability of the control group.[23]

[4] = Cytotoxicity assay (MTT) against MRC-5 cells; format: cell-based; details: human, MRC-5 cells (normal embryonic lung cell line), read-out: Cytotoxic activity (IC50)
Protocol: MRC-5 cells were grown in DMEM supplemented with 100 U/mL penicillin–streptomycin and 10% FBS. Briefly, the cells suspended in the corresponding culture medium were inoculated in 96-well microtiter plates (Corning Inc., NY, USA) at 10,000–20,000 cells per well and then incubated at 37 °C under a humidified atmosphere with 5% CO2 for 24 h. An equal volume of additional medium containing serial dilutions of test compounds, positive control (doxorubicin), or negative control (DMSO) was added to the desired final concentrations. Microtiter plates were further incubated for 48 h. The cell viability in each well was determined by staining with the MTT assay reagent (Molecular Probes, Cat. no. M6494).[75]–[77] MTT solution ([…]) was added to all wells of the assay, and the plates were incubated for 2–4 h. Subsequently, DMSO was added to dissolve the resulting formazan by sonication. The plates were read on a microplate reader (Molecular Devices, USA) using a test wavelength of 550 nm and a reference wavelength of 650 nm. The IC50 value was determined as the concentration of compound that inhibited the cell growth by 50%.

[5] = tested on: H2O2-induced SH-SY5Y cells; assay: Intracellular ROS production (DCFDA) in H2O2-induced SH-SY5Y cells; format: cell-based, human; details: for effect on intracellular ROS production: 5 μM pretreatment, vs H2O2 alone
Protocol: Green fluorescent DCF was generated by the oxidation of nonfluorescent carboxy-DCFDA, which is caused by intracellular ROS. SH-SY5Y cells (200 μL) at 1.0 × 10^5 cells/mL were seeded and incubated overnight in 96-well plates at 37 °C. Then, each well was pretreated for 3 h with 5 μM aminochalcones or resveratrol before exposure to 400 μM H2O2 for an additional 24 h. Subsequently, carboxy-H2DCFDA was introduced to the to a final concentration of 10 μM in the culture media and incubated at 37 °C for 30 min under dark conditions. Intracellular ROS production was instantly evaluated using a microplate reader at an emission wavelength of 528 nm and an excitation wavelength of 485 nm. The intracellular ROS production of the cells was expressed as percentages compared with the control group.[79]

[6] = tested on: H2O2-induced SH-SY5Y cells; assay: Mitochondrial membrane potential (Rhodamine-123) in H2O2-induced SH-SY5Y cells; format: cell-based, human; details: 5 μM pretreatment, vs H2O2 alone
Protocol: Mitochondrial-specific fluorescent dye, Rhodamine-123 (Sigma-Aldrich, Cat. no. R8004), was used to determine the MMP. The reduction in the fluorescence signal correlated with the decrease in MMP, which referred to a decrease in the mitochondrial function. SH-SY5Y cells (200 μL) at 1.0 × 10^5 cells/mL were plated onto the 96-well plate and incubated overnight at 37 °C. Then, each well was pretreated for 3 h with 5 μM aminochalcones or resveratrol before being challenged with 400 μM H2O2 for further 24 h. Cells were then exposed to Rhodamine-123 at a final concentration of 10 μM in the culture media and incubated at 37 °C for 30 min under dark conditions. At the end of incubation, cells were washed twice with PBS to remove the excess dye. MMP levels were then measured with a microplate reader at excitation and emission wavelengths of 488 and 525 nm, respectively. The MMP of the cells was expressed as percentages compared with the control group.[80]

| melting point | SMILES | effect on cell morphology [1] | protective effect on cell viability [2] | effect on cell membrane damage [3] | effect on cell viability, compounds alone (SH-SY5Y cells) | IC50 at 48 h [4] | effect on intracellular ROS production [5] | effect on mitochondrial function [6] | viability at 5 µM ([2]; Homo sapiens, SH-SY5Y, read-out: cell viability (percentage relative to control)) | activity at 5 µM ([5]; Homo sapiens, SH-SY5Y, 5 μM pretreatment 3 h, then 400 μM H2O2 24 h, H2O2 alone 135.54%, read-out: intracellular ROS production (fluorescence intensity, % of control)) |
| --- | --- | --- | --- | --- | --- | --- | --- | --- | --- | --- |
|  | COc1cc(/C=C/C(=O)c2ccc(N)cc2)cc(OC)c1OC [Compound 3, (E)-1-(4-Aminophenyl)-3-(3,4,5-trimethoxyphenyl)prop-2-en-1-one] | prevented morphological aberration | significantly improved the cell viability | reduced cell membrane damage | hazardous to the treated cells | 70.3 ± 3.78 µM | reduced intracellular ROS production | prevented mitochondrial dysfunction |  |  |
|  | COc1cccc(/C=C/C(=O)c2ccc(N)cc2)c1 [Compound 5, (E)-1-(4-Aminophenyl)-3-(3-methoxyphenyl)prop-2-en-1-one] | prevented morphological aberration | significantly improved the cell viability | reduced cell membrane damage |  | 116 ± 8.08 µM | reduced intracellular ROS production | prevented mitochondrial dysfunction |  |  |
|  | COc1ccc(/C=C/C(=O)c2ccc(N)cc2)c(OC)c1OC [Compound 2, (E)-1-(4-Aminophenyl)-3-(2,3,4-trimethoxyphenyl)prop-2-en-1-one] | prevented morphological aberration | significantly improved the cell viability | reduced cell membrane damage |  | 99.3 ± 4.15 µM | reduced intracellular ROS production | prevented mitochondrial dysfunction |  |  |
| 187 to 189 °C | COc1ccc(/C=C/C(=O)c2ccc(N)cc2)cc1O [Compound 4, (E)-1-(4-Aminophenyl)-3-(3-hydroxy-4-methoxyphenyl)prop-2-en-1-one] |  | low protective potential |  | hazardous to the treated cells | 115.3 ± 1.05 µM |  |  |  |  |
|  | COc1cccc2c1C(=O)c1c(O)c3c(c(O)c1C2=O)C[C@@](O)(C(=O)CO)C[C@@H]3O[C@H]1C[C@H](N)[C@H](O)[C@H](C)O1 [doxorubicin, reference compound] |  |  |  |  | 3.03 ± 0.09 µM |  |  |  |  |
|  | Oc1ccc(/C=C/c2cc(O)cc(O)c2)cc1 [resveratrol, reference compound] | morphological alterations were reduced |  |  |  |  |  |  | 85% | 123 ± 2% |
